{"source": "paper PMC6804997", "about": "(PLoS ONE, 2019)", "key": {"[1]": {"system": "rhabdomyolysis-induced AKI in glycerol-injected mice", "assay": "Glycerol-induced rhabdomyolysis AKI mouse model with F7 pretreatment", "format": "in vivo, C57BL/6 mice", "procedure": "After one week of adoption to the housing conditions, the mice were randomly divided into three groups (n = 8): control, glycerol, and glycerol+HDAC6 inhibitor (F7). For the latter two groups, a single intramuscular injection of 50% glycerol dissolved in 0.9% normal saline (10 μl/g) was divided between bilateral back limbs to induce rhabdomyolysis-induced AKI model. The mice in control group received the same dose of saline injection at the place of glycerol. Before glycerol injection, mice in pretreatment group were orally administrated with F7 (dissolved in DEG and diluted with 0.9% saline) at a dose of 40mg/kg/d (200 μl solution for 28g) for 3 days. For control and glycerol groups, mice were treated with the same dose of saline.\nAll the mice were euthanized via pentobarbital sodium injection (50 mg/kg, i.p.). Terminal blood samples were collected and serum samples were stored at -80°C. Kidney tissues were divided and respectively removed into 10% phosphate buffered formalin for histological staining, and into liquid nitrogen follows by storage at -80°C for further quantitative analysis and immunofluorescence staining.\nThe serum level of creatinine kinase (CK), blood urea (UREA) and serum creatinine (sCr) were tested using high performance liquid chromatography (HPLC) by Institute of Drug Clinical Trial and the GCP center of West China Hospital of Sichuan University.\nParaffin-embedded kidney tissue samples were cut into 4-um sections and stained with haematoxylin and erosin (H&E) and periodic acid-Schiff (PAS) staining. These sections were viewed using light microscopy at magnifications of ⊆200 and ⊆400 respectively, and semiquantitative estimation of renal tubular damage was performed on a scale from 0 to 4 to grade the percentage of injured/damaged renal tubules: 0 for 0%, 0.5% for <10%, 1 for 10–25%, 2 for 26–50%, 3 for 51–75% and 4 for 76–100%[22]. At least 10 areas were randomly selected in the cortex per slide.\nKidney tissue samples were mounted in O.C.T. compound medium (Tissue-Tek) for cryosectioning (4 μm). Sections were immediately fixed in 10% buffered formalin, washed, dehydrated and stored at -20°C. Before immunofluorescence staining, the tissue sections were rehydrated and blocked with 10% horse medium (diluted with PBS solution) for 1 hour at room temperature and incubated at 4°C overnight with indicated primary antibodies. Then sections were exposed to second antibodies labeled with Cy5 red or FITC green (Jackson ImmunoResearch Inc., West Grove, PA, United States). The nuclei were counterstained with DAPI (1:500, Life Technologies Corporation, OR, United States). The images were captured with AxioCam HRc digital camera (Carl Zeiss).\nKidney tissue or cultured cell samples were sufficiently lysed in the mixture of RIPA buffer (50 mM Tris (pH7.4), 150 mM NaCl, 1% TritonX-100, 1% sodium deoxycholate, 0.1% SDS) containing 4% cocktail proteinase inhibitor (Roche, Switzerland) on ice. After centrifuged at 13,000 rpm for 15 min at 4°C, supernate of the homogenate were collected for protein quantification. Protein equivalent to 50 ug were loaded into 10–12% SDS-PAGE gels for electrophoretic separation, and then transferred to polyvinylidene difluoride (PVDF) membranes (0.2 μm, Bio-Rad Laboratories, Inc.). After protein blotting, membranes were blocks using 5% non-fat dried milk for 1h at room temperature, then probed with primary antibodies at 4°C overnight, and incubated with secondary antibodies for 1h at room temperature. […]"}, "HK-2 cells": {"system": "HK-2 cells", "assay": "Western blot of myoglobin-stimulated HK-2 cells", "format": "cell-based, Human", "procedure": "Kidney tissue or cultured cell samples were sufficiently lysed in the mixture of RIPA buffer (50 mM Tris (pH7.4), 150 mM NaCl, 1% TritonX-100, 1% sodium deoxycholate, 0.1% SDS) containing 4% cocktail proteinase inhibitor (Roche, Switzerland) on ice. After centrifuged at 13,000 rpm for 15 min at 4°C, supernate of the homogenate were collected for protein quantification. Protein equivalent to 50 ug were loaded into 10–12% SDS-PAGE gels for electrophoretic separation, and then transferred to polyvinylidene difluoride (PVDF) membranes (0.2 μm, Bio-Rad Laboratories, Inc.). After protein blotting, membranes were blocks using 5% non-fat dried milk for 1h at room temperature, then probed with primary antibodies at 4°C overnight, and incubated with secondary antibodies for 1h at room temperature. […] Immunoblots were visualized with the Immobilon Western Chemiluminescent HRP Substrate (Millipore Corporation, Billerica, MA, United States) and measured with Bio-Rad Chemi Doc MP. […]"}, "[2]": {"settings": "glycerol+F7 vs glycerol group, F7 40 mg/kg/d oral for 3 days"}, "[3]": {"settings": "western blot, F7 40 mg/kg/d for 3 days"}}, "data": [{"smiles": "Cc1nc(N(C)c2ccc(Oc3ccc(C(=O)NO)cn3)cc2)c2ccccc2n1", "note": "[F7, N-hydroxy-6-(4-(methyl(2-methylquinazolin-4-yl)amino)phenoxy)nicotinamide]", "values": [{"measurement": "IL-β and TNF-α in serum and kidney lysates", "setting": "[1]; ELISA, F7 40 mg/kg/d for 3 days", "result": "decreased"}, {"measurement": "NGAL expression in tubules (immunofluorescence staining)", "setting": "[1]; F7 40 mg/kg/d for 3 days", "result": "largely diminished"}, {"measurement": "pathological injuries (tubular damage, H&E and PAS staining)", "setting": "[1]; F7 40 mg/kg/d oral for 3 days pretreatment", "result": "effectively alleviated"}, {"measurement": "Serum creatine kinase (CK)", "setting": "[1]; glycerol+F7 group vs control, 24 hours after glycerol injection, F7 40 mg/kg/d oral for 3 days", "result": "markedly elevated"}, {"measurement": "serum creatinine (sCr)", "setting": "[1]; [2]", "result": "remarkably decreased"}, {"measurement": "serum urea (UREA)", "setting": "[1]; [2]", "result": "remarkably decreased"}, {"measurement": "NGAL mRNA expression and protein expression", "setting": "[1]; real-time PCR and immunoblot, F7 40 mg/kg/d for 3 days", "result": "markedly reduced"}, {"measurement": "mRNA level of IL-6 and TNF-α in kidney", "setting": "[1]; real-time PCR, F7 40 mg/kg/d for 3 days", "result": "significantly decreased"}, {"measurement": "expression of HDAC6 in the damaged kidney", "setting": "[1]; western blot and immunofluorescence, F7 40 mg/kg/d for 3 days", "result": "significantly inhibited"}, {"measurement": "IκBα phosphorylation in kidney", "setting": "[1]; [3]", "result": "decreased"}, {"measurement": "NF-κB p65 phosphorylation in kidney", "setting": "[1]; [3]", "result": "effectively down-regulated"}, {"measurement": "acetylation of histone H3 and α-tubulin in kidney", "setting": "[1]; [3]", "result": "enhanced"}, {"measurement": "p38 phosphorylation in kidney", "setting": "[1]; [3]", "result": "effectively inhibited"}, {"measurement": "proinflammatory cytokines IL-6 and IL-β protein levels in kidney", "setting": "[1]; [3]", "result": "remarkably down-regulated"}, {"measurement": "total ERK1/2 expression in kidney", "setting": "[1]; [3]", "result": "effectively inhibited"}, {"measurement": "ERK1/2 phosphorylation in kidney", "setting": "[1]; western blot, F7 treatment group", "result": "no significant ERK1/2 phosphorylation reduction"}, {"measurement": "HDAC6 expression in vitro", "setting": "HK-2 cells", "result": "effectively inhibited"}, {"measurement": "inflammation in HK-2 cells (NF-κB pathway activation)", "setting": "HK-2 cells", "result": "ameliorated"}]}]}
